Like-named read-outs stand apart in the source and are kept apart here.
Key:
SW480 = experiment: MTT cell viability, SW480; format: cell-based, human; settings: Homo sapiens, SW480, 48 hours, Mean ± SD, read-out: Growth Inhibition IC50 SW480
Experimental: (§1) Cell lines used in the present disclosure include human liver carcinonoma cell line HepG2, human bladder carcinoma cell line BFTC905, human colon carcinoma cell lines HT29 and SW480, and human leukemia cell lines HL60 and Jurkat T, and mouse lymphocytic leukemia cell line L1210. Each cell lines were cultured and maintained in Dulbecco's modified Eagle media (DMEM) or RPMI 1640 medium supplemented with 10% heat inactivated fetal bovine serum (FBS), 1% penicillin/streptomycin, in 5% CO2195% air at 37° C.
(§2) The absorbance of the solution at 540 nm was measured by spectrophotometer. The IC50 values were defined as the drug concentration that inhibit 50% cell growth by setting the viability of untreated cells as 100%. Values were represented as the mean±SD from at least 3 independent experiments.
(§3) Effects of the compounds of formula (I) of this disclosure, specifically, NOC15 and NC 15, on HepG2 cells (liver carcinoma), BFTC905 (bladder carcinoma), HT29 (colon carcinoma), SW480 (colon carcinoma) and HL60 (leukemia) were assessed by cell viability analysis in accordance with procedures described above, in which compound 2, and other known anti-cancer agents including 5-FU, cisplatin and doxorubicin were respectively used as positive controls.

HepG2 cells [1] = experiment: Cell cycle distribution by flow cytometry (PI), HepG2; format: cell-based, human; settings: 48 hours, FIG. 2
Experimental: (§4) Cultured cells with or without pre-treatment of the compounds of this invention (i.e., norcantharidin, NOC15, or NC15, 10-60 μM for 48 hours) were harvested from the cultured media and fixed by incuating with 75% iced cold ehtanol and kept at −20° C. until analysis. The fixed cells were then washed with PBS, and treated with […] (200 μg/mL, 500 μL) for about 1.5 hour at 37° C. Precipitated cells were collected by centrifugation and re-suspended in a buffer solution containing propidium iodine (PI) (40 μg/ml) and incubated in the dark for 20 min at 20-25° C. before being subject to flow cytometry analysis, where cell numbers at respective cell cycles were determined.
(§5) HepG2 cells were treated with 10-60 μM of the test compounds for 48 hours, then cell cycle distribution and apoptosis analysis was analyzed by flow cytometry, with the subG1 phase being stained with propidium idoine (PI). Results are illustrated in FIGS. 2 and 3.

L1210 cells = experiment: Ex vivo growth of leukemia cells (L1210); format: cell-based, mouse; settings: read-out: concentration suppressing ex vivo growth of L1210 cells for about 50%
Jurkat T cells = experiment: Cell cycle distribution by flow cytometry, Jurkat T cells; format: cell-based, human; settings: for percentage of cells in subG1 phase: FIG. 5, FIG. 7
Experimental: as §4
Cell cycle distribution was determined by flow cytometry as described in the “Materials and Methods” section. Results is depicted in FIG. 5.
In this example, Jurkat T cells were treated with or without NC15 (2.513 μM) for 24 or 48 hours before being subject to cell cycle analysis. Results are depicted in FIG. 7.

HT29 = experiment: MTT cell viability, HT29; format: cell-based, human; settings: Homo sapiens, HT-29, 48 hours, Mean ± SD, read-out: Growth Inhibition IC50 HT-29
Experimental: as §1, §2, §3

HepG2 cells [2] = experiment: MTT cell viability, HepG2; format: cell-based, human; settings: Homo sapiens, Mean ± SD
Experimental: as §1, §2, §3
In this example, effects of NOC15 or NC15 on HepG2 cells were assessed by cell viability analysis in accordance with procedures described above, in which compound 2 was used as a positive control.

[3] = test system: human lymphoblast cells (NHL); experiment: Cell viability (CCK-8), normal lymphoblast cells; format: cell-based; settings: 24 hours (NC15: 24 and 48 hours), FIG. 4, FIG. 6
Experimental: (§6) The cell viability assays were performed in 96-well plates. The 100 μl of cell suspensions (NHL or Jurkat T cells, 5×10^3 cells/well, serum-free medium) were inoculated in the wells and the plates were pre-incubated in the incubator for 24 hours (pre-incubated for 22 hours and stimulated with PMA 5 ng/ml plus ionomycin 250 ng/ml for 2 hours in PMAI-treated groups). Then, various concentrations of norcantharidin (0, 2, 4, 15, 30 and 60 μM) or NOC15 (0, 0.25, 0.5, 1, 2 and 4 μM) were added into the culture media in the wells. After 24 hours of incubation, the cell viability of NHL and Jurkat T cells was measured by cell counting kit-8 (CCK-8, Sigma). The half maximal inhibitory concentrations (IC50) of norcantharidin and NOC15 on Jurkat T cells and NHL cells were calculated.
(§7) In this example, a model of phorbol 12-myristate 13-acetate plus ionomycin (PMAI) activated leukemia Jurkat T cells model was employed to investigate the effects of the NOC15 on human leukemia cells (Jurkat T cells) and human lymphoblast cells (NHL).

HepG2 cells [4] = experiment: Hoechst 33528 staining, nuclear morphological changes; format: cell-based, human; settings: 40 μM, 48 hours, FIG. 1
Experimental: Staining with Hoechst 33528 was performed according to the method described previously (Huang et al., Cytotechnology 2009, 59, 201-208). Briefly, cells were treated with 40 μM norcantharidin, NOC15, or NC15 for 48 hours, then washed with PBS saline and stained with Hoechst 33528 (Sigma, St. Louis, Mo., USA) at a final concentration of 10 μg/mL. The slides were examined under a fluorescence microscope. Cells with a small nucleus, a high fluorescence intensity (due to chromatin condensation) or nuclear fragmentation were considered apoptotic.
To further investigate the role of apoptosis in the cytotoxicity of NOC15 and NC15, HepG2 cells were incubated with compound 2, NOC15 and NC15, respectively, for 48 hours; then were stained with Hoechst 33528 and examined by fluorescence microscope for any topical morphological changes.

HepG2 cells [5] = experiment: Apoptotic analysis annexin-V/PI flow cytometry; format: cell-based, human; settings: 10-60 μM, 48 hours, FIG. 3
Experimental: The percentage of apototic cells was determined according to the manufacturer's protocol by using an annexin-V/FITC kit/propidium iodine (PI) flow cytometer. To facilitate the detection of apoptosis, the treated cells were centrifuged for 5 min at a speed of 1,000×g at room temperature, and then resuspended and washed once with 5 mL PBS before being stained with annexin-V/PI (apoptosis detection kit, R&D Systems, Taipei, Taiwan).
as §5

[6] = test system: human leukemia cells (Jurkat T cells); experiment: Cell viability (CCK-8), PMAI activated leukemia Jurkat T cells model; format: cell-based; settings: 24 hours (NC15: 24 and 48 hours), FIG. 4, FIG. 6
Experimental: as §6, §7

BFTC905 = experiment: MTT cell viability, BFTC905; format: cell-based, human; settings: Homo sapiens, BFTC-905, 48 hours, Mean ± SD, read-out: Growth Inhibition IC50 BFTC905
Experimental: as §1, §2, §3

## CC(C)=CCCC(C)=CCCC(C)=CCN1C(=O)C2C3CCC(O3)C2C1=O (stereo not shown) [Compound 18, N-farnesyl-7-oxabicyclo[2.2.1]heptane-2,3-dicarboximide]
SW480
  IC50: 33.1 ± 1 µM
HepG2 cells [1]; 10 μM
  fraction of apoptotic cells (subG1): 3.7%
HepG2 cells [1]; 60 μM
  fraction of apoptotic cells (subG1): 19.8%
HepG2 cells [1]; 10-60 μM
  accumulation of cells in G2/M phase: inducing the accumulation of cells in G2/M phase
L1210 cells; L1210, time not given, listed as NC15
  IC50: ~2.6 µM
L1210 cells; Mus musculus, L1210, L1210, time not given
  IC50: ~1.6 µM
Jurkat T cells; 2.513 μM, 48 hours, vs control, FIG. 7D
  number of cells in G0/G1 phase: decreased
Jurkat T cells; treated 24 hours (NC15 2.513 μM)
  percentage of cells in subG1 phase: started to increase
Jurkat T cells; treated 48 hours (NC15 2.513 μM)
  percentage of cells in subG1 phase: reached a significant level
HT29
  IC50: 14.8 ± 1.9 µM
HepG2 cells [2]; HepG2, 24 h, read-out: Growth Inhibition On Hepatic Cancer Cells IC50 24 hrs
  IC50: 19.4 ± 2.1 µM
HepG2 cells [2]; HepG2, 48 h, MTT, 48 hours, read-out: Growth Inhibition IC50 HepG2
  IC50: 16.4 ± 1.2 µM
HepG2 cells [2]; HepG2, 48 h, read-out: Growth Inhibition On Hepatic Cancer Cells IC50 48 hrs
  IC50: 16.4 ± 1.2 µM
HepG2 cells [2]; HepG2, 72 h, read-out: Growth Inhibition On Hepatic Cancer Cells IC50 72 hrs
  IC50: 12.8 ± 2.5 µM
[3]
  cytotoxicity to normal lymphatic/lymphoblast cells (NHL): did not possess significant cytotoxicity
HepG2 cells [4]
  nuclear morphological changes (apoptosis features): Significant morphological features of apotosis
HepG2 cells [5]
  percentage of apoptotic cells / cell death: dose-dependent
[6]
  cytotoxicity to leukemia Jurkat T cells: toxic
BFTC905
  IC50: 9.3 ± 0.6 µM

From patent publication US9359373B1, “Lipophilic N-substituted norcantharimide derivatives and uses thereof” (priority 2014, dated 2016)
